Results on 5 compounds are retold here after publication PMC11909128, “Identification and inhibition of PIN1-NRF2 protein–protein interactions through computational and biophysical approaches” (Scientific Reports, 2025).

In one assay the target is GST-PIN1 (Homo sapiens, UniProt Q13526, M1N). In words: Fluorescence polarisation (FP) direct binding: GST-PIN1 titrated to fluorescently labelled phospho-peptide. On the set-up: host or cells: E. coli BL21 (DE3). As to conditions: apparent Kd compared with Pintide. How it is done: Fluorescence polarisation experiments were performed at room temperature in a buffer consisting of 5 mM HEPES pH 7.4, 30 mM NaCl, 0.1% v/v Tween20, and 1% v/v DMSO. Corning black, round-bottom, low-binding 384-well plates were utilized for all assays. The NRF2 mimicking fluorescein-labelled peptides, ETTMVPp[…] (NRF2_209-222^pSer215), DMVQPLp[…] (NRF2_402-415^pSer408), and EDGKPYp[…] (NRF2_571-584^pSer577) and the Pintide peptide (WFYpSPFLE) with the optimal binding for the WW domain were commercially purchased from China Peptides. For protein titration studies, GST-PIN1 was titrated to the fluorescently-labelled Nrf 2 phospho-peptides (10 nM) in the presence of a fixed concentration of PIN1 inhibitor (100 μM) or only DMSO as control group. To show PIN1 specificity, only GST protein was used as the control protein group. Fluorescence polarisation was measured using a CLARIOstar® Microplate Reader with an excitation wavelength of λex: 490/20 nm and an emission wavelength of λem: 535/20 nm. The binding affinities (Kd) were determined by sing GraphPad Prism 7 software, and sigmoidal curves were fitted using the equation: Y = Bottom + (Top − Bottom)/(1 + 10^((Log app.Kd − X) * HillSlope)), where Y represents the mP value, X denotes the log protein concentration, and Top and Bottom represent the plateaus in mP. […]
Sequence of GST-PIN1 (Q13526 whole entry M1N, the tested form may be a part): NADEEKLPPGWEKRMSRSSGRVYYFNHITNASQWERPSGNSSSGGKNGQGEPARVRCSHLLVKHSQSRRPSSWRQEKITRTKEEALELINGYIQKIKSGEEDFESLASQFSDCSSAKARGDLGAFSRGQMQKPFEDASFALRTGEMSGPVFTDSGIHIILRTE

Assay [1] has as its target T1, PIN1-NRF2 interaction (Homo sapiens, UniProt Q13526, M1N).
T1 construct: host or cells: E. coli BL21 (DE3)
Description: FP competition / ligand displacement assay: competitor titrated to fixed GST-PIN1 and fluorescently labelled NRF2 peptide. In kind it is binding. How it is done:
Next, a competition binding assay was used to determine if Pintide competed for PIN1 binding with the NRF2 peptides in a concentration dependent manner. Thus, Pintide was titrated to a fixed concentration of GST-PIN1 (1 µM) and fluorescently labelled NRF2 peptide (10 nM).
Thus, the inhibitors were titrated to a fixed concentration of GST-PIN1 (1 µM) and fluorescently labelled NRF2 peptide (10 nM).
(§1) Fluorescence polarisation experiments were performed at room temperature in a buffer consisting of 5 mM HEPES pH 7.4, 30 mM NaCl, 0.1% v/v Tween20, and 1% v/v DMSO. Corning black, round-bottom, low-binding 384-well plates were utilized for all assays. The NRF2 mimicking fluorescein-labelled peptides, ETTMVPp[…] (NRF2_209-222^pSer215), DMVQPLp[…] (NRF2_402-415^pSer408), and EDGKPYp[…] (NRF2_571-584^pSer577) and the Pintide peptide (WFYpSPFLE) with the optimal binding for the WW domain were commercially purchased from China Peptides. For protein titration studies, GST-PIN1 was titrated to the fluorescently-labelled Nrf 2 phospho-peptides (10 nM) in the presence of a fixed concentration of PIN1 inhibitor (100 μM) or only DMSO as control group. To show PIN1 specificity, only GST protein was used as the control protein group. Fluorescence polarisation was measured using a CLARIOstar® Microplate Reader with an excitation wavelength of λex: 490/20 nm and an emission wavelength of λem: 535/20 nm. The binding affinities (Kd) were determined by sing GraphPad Prism 7 software, and sigmoidal curves were fitted using the equation: Y = Bottom + (Top − Bottom)/(1 + 10^((Log app.Kd − X) * HillSlope)), where Y represents the mP value, X denotes the log protein concentration, and Top and Bottom represent the plateaus in mP. Moreover, for the ligand displacement assays, the inhibitors were titrated to a fixed concentration of GST-PIN1 (1 μM) and fluorescently labelled NRF2 peptide (10 nM). The change in polarisation values were normalised to the DMSO control group and presented as percentage change.

Assay [2] deals with T1, PIN1-NRF2 interaction. Description: FP protein titration: GST-PIN1 titrated to fluorescently labelled NRF2 phospho-peptides in the presence of a fixed concentration of Pintide or PIN1 inhibitor. In kind it is binding. The conditions noted are these: for fold reduction in binding affinity of NRF2_209-222^pSer215 / fold reduction in binding affinity of NRF2_402-415^pSer408 / fold reduction in binding affinity of NRF2_571-584^pSer577: inhibitor 100 µM vs DMSO. How it is done:
First, GST-PIN1 was titrated to the fluorescently labelled Nrf 2 phospho-peptides (10 nM) in the presence of a fixed concentration of Pintide (10 µM).
In this study, we integrated three different PIN1 inhibitors, including juglone, epigallocatechin gallate (EGCG), and KPT-6566 (Fig. 6a). […] First, GST-PIN1 was titrated to the fluorescently labelled NRF2 phospho-peptides (10 nM) in the presence of a fixed concentration of PIN1 inhibitor (100 µM).
as §1

Assay [3] has as its target T2, PIN1 (Homo sapiens, UniProt Q13526). In words: Denaturing mass spectrometry of PIN1 incubated with KPT-6566 (covalent modification). As to conditions: PIN1 10 µM, KPT-6566 30 µM, 1 h. How it is done:
KPT-6566 was previously shown to covalently modify the PIN1 PPIase domain at Cys113 via an unusual disulfide exchange of the sulfonyl-acetate moiety (KPT-65666-A, Fig. 7a)[31]. […] The remaining fragment of KPT-6566 (KPT-6566-B) was reported to be released into the cytoplasm. To verify this, we incubated PIN1 (10 µM) with KPT-6566 (30 µM) and then analysed the results by denaturing mass spectrometry. […] Of this, there was only a barely detectable trace of covalent PIN1 modification with KPT-6566-A (Supplementary Fig. 6a, b). […] Given these findings, the effects of both modes of covalent PIN1 modification by KPT-6566 on NRF2 phospho-peptide binding were subject to computational simulations.
From protein stock, PIN1 was diluted into an assay buffer solution of 50 mM HEPES, 300 mM NaCl pH 7.4 to a final concentration 10 μM and incubated with KPT-6566 (30 μM) for 1 h. Then, the sample was 2-times diluted by using H2O containing 0.1% v/v formic acid solution to give a final protein concentration of 0.1–1 mg/mL, and mass spectra were obtained using a Waters Acquity XEVO Q ToF instrument.

Another assay deals with breast cancer cells. On the set-up: method as in PMID 28598431. As to conditions: breast cancer cells treated with KPT-6566; cited from earlier work.
In assay [4] the target is T2, PIN1. The arrangement: method as in PMID 28598431. As to conditions: disulfide exchange of the sulfonyl-acetate moiety at Cys113; cited from earlier work.
The mark [5] stands for this setting: GST-PIN1 1 µM, labelled NRF2_402-415^pSer408 10 nM, read-out: IC50, inhibition of NRF2_402-415^pSer408 binding to PIN1.
[6] abbreviates: GST-PIN1 1 µM, labelled NRF2_571-584^pSer577 10 nM, read-out: IC50, inhibition of NRF2_571-584^pSer577 binding to PIN1.

Read-outs that look alike come from different tables or passages of the source. Square brackets hold non-standard residues; d marks the D form. Peptide text beside a SMILES is read from it. * marks the point of attachment. FITC = O=C1OC2(c3ccc(O)cc3Oc3cc(O)ccc32)c2ccc(NC(=S)*)cc21; pS = N[C@@H](COP(=O)(O)O)C(=O)O; Ahx = NCCCCCC(=O)O

T1 sequence (Q13526 whole entry M1N): as the sequence (Q13526 whole entry M1N, the tested form may be a part) above
T2 sequence (Q13526 whole entry, the tested form may be a part): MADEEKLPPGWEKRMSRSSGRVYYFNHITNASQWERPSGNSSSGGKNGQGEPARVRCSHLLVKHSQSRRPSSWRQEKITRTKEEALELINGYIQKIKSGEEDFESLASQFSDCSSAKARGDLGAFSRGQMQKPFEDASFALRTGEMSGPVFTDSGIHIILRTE

For the compound `CSCC[C@H](NC(=O)[C@@H](NC(=O)[C@@H](NC(=O)[C@H](CCC(=O)O)NC(=O)CCCCCNC(=S)Nc1ccc2c(c1)C(=O)OC21c2ccc(O)cc2Oc2cc(O)ccc21)[C@@H](C)O)[C@@H](C)O)C(=O)N[C@H](C(=O)N1CCC[C@H]1C(=O)N[C@@H](COP(=O)(O)O)C(=O)N1CCC[C@H]1C(=O)N[C@@H](CCC(=O)O)C(=O)N[C@@H](C)C(=O)N[C@@H](CCCCN)C(=O)N[C@@H](CC(C)C)C(=O)N[C@H](C(=O)N[C@@H](CCC(=O)O)C(=O)O)[C@@H](C)O)C(C)C` [NRF2_209-222^pSer215, ETTMVPpSPEAKLTE] ({FITC-Ahx}-ETTMVP[pS]PEAKLTE-OH; N-terminus assumed), at GST-PIN1, the “fold weaker interaction with PIN1 than the optimised Pintide ligand” value is on record as “tenfold”.
One may read the IC50 as the point on the concentration scale where inhibition reaches its midpoint. Consider `O=C1C=CC(=O)c2c(O)cccc21` [juglone], for which, on PIN1-NRF2 interaction [1] (GST-PIN1 1 µM, labelled NRF2_209-222^pSer215 10 nM, read-out: IC50, inhibition of NRF2_209-222^pSer215 binding to PIN1), the IC50 is 26.8 µM. The IC50 at PIN1-NRF2 interaction [1] (setting [5]) worked out at 20 µM. Moreover, on PIN1-NRF2 interaction [1] (setting [6]), the IC50 came to 30 µM. At PIN1-NRF2 interaction [2], the “fold reduction in binding affinity of NRF2_209-222^pSer215” value was determined as 8 fold, the “fold reduction in binding affinity of NRF2_402-415^pSer408” value is listed as 18 fold and the “fold reduction in binding affinity of NRF2_571-584^pSer577” value is on record as “sixfold”.
With `CSCC[C@H](NC(=O)[C@H](CC(=O)O)NC(=O)CCCCCNC(=S)Nc1ccc2c(c1)C(=O)OC21c2ccc(O)cc2Oc2cc(O)ccc21)C(=O)N[C@H](C(=O)N[C@@H](CCC(N)=O)C(=O)N1CCC[C@H]1C(=O)N[C@@H](CC(C)C)C(=O)N[C@@H](COP(=O)(O)O)C(=O)N1CCC[C@H]1C(=O)N[C@@H](CO)C(=O)N[C@@H](CCC(N)=O)C(=O)NCC(=O)N[C@@H](CCC(N)=O)C(=O)N[C@@H](CO)C(=O)N[C@H](C(=O)O)[C@@H](C)O)C(C)C` [NRF2_402-415^pSer408, DMVQPLpSPSQGQST] ({FITC-Ahx}-DMVQPL[pS]PSQGQST-OH; N-terminus assumed), the “fold weaker interaction with PIN1 than the optimised Pintide ligand” value at GST-PIN1 was ~ 13 fold.
As to `CC(C)(C)c1ccc(S(=O)(=O)/N=C2\C=C(SCC(=O)O)C(=O)c3ccccc32)cc1` [KPT-6566], on PIN1-NRF2 interaction [1] (setting [5]), the IC50 is 0.3 µM. For the same compound, the IC50 at PIN1-NRF2 interaction [1] (setting [6]) is 1.4 µM. The “fold more potent than Juglone” value at PIN1-NRF2 interaction [1] (IC50 comparison, ligand displacement assay) is recorded as ~ 20 fold. For the same compound, on PIN1-NRF2 interaction [1] (range over the three NRF2 phospho-peptides, read-out: IC50 range, inhibitory effect on PIN1-NRF2 interaction), the IC50 fell in the range of 0.3 to 1.4 µM. In addition, on PIN1 [3], the “extent of covalent PIN1 modification” value was “only a small amount of covalent PIN1 modification was observed” and the “mass increase of the major modified PIN1 species” value stood at 353 Da. For the same compound, on PIN1-NRF2 interaction [2], the “fold reduction in binding affinity of NRF2_209-222^pSer215” value worked out at 25 fold, the “fold reduction in binding affinity of NRF2_402-415^pSer408” value is 92 fold and the “fold reduction in binding affinity of NRF2_571-584^pSer577” value worked out at 149 fold. In the assay on breast cancer cells, the “NRF2-mediated oxidative stress elements (microarray analysis)” value was “upregulation” and the “NRF2 downstream enzymes cFOS, HO1, NQO1, TXNRD1, DNAJB9 at the mRNA level (quantitative RT-PCR)” value is reported as “upregulation”. Besides, the PIN1 mass increase on PIN1 [4] is 90 Da.
On to `O=C(O[C@@H]1Cc2c(O)cc(O)cc2O[C@@H]1c1cc(O)c(O)c(O)c1)c1cc(O)c(O)c(O)c1` [EGCG, epigallocatechin gallate], for which the “inhibitory effect on the binding of any NRF2 phospho-peptide to PIN1” value at PIN1-NRF2 interaction [2] (inhibitor 100 µM, all three NRF2 phospho-peptides) was “did not show any inhibitory effect”.
